From patent US20230192764A1, “NOVEL DOPAMINE PRECURSORS” (Yissum Research Development Company of the Hebrew …, priority 2018, published 2023)
Values joined by “and” are separate entries in the source; they are usually repeats but may differ in a detail not shown here. Equal values may be shown once.

Key:
JNK phosphorylation = experiment: AuF-induced phosphorylation of JNK in SH-SY5Y cells, western blot; format: cell-based, human
Protocol: SH-SY5Y cells were treated with 10 µM AuF with or without SD-444. Phosphorylation was determined by western blot analysis. The amount of each band was quantitated by densitometry and plotted with a linear regression program normalized to total JNK.
(§1) In the assay, twenty to thirty micrograms of protein samples were loaded on 10-12% SDS-PAGE gels. The proteins were then transferred electrophoretically to nitrocellulose (Whatman, Germany). The blots were blocked by incubation for 1 h at RT in TBS-T (25 mM Tris-HCl pH 7.4, 0.9% NaCl and 0.02% Tween-20) with 4% Difco skim milk (BD, USA), and incubated over-night at 4° C. with the primary antibody: p-p38^MAPK (Thr180/Tyr182), rabbit mAb; p38, rabbit Ab.
as §1, with “1h” for “1 h”, “p-JNK^MAPK, and β-catenin.” for “p-p38^MAPK (Thr180/Tyr182), rabbit mAb; p38, rabbit Ab.”

[1] = Body weight monitoring in rotenone-treated rats; format: in vivo, Sprague Dawley rats; details: for Weight: individual rat, listed as SDA
Protocol: 1-SD (Rotenone + SD); 2 - SDA (Rotenone + SDA); 3 - Control (Rotenone); 4 -Naive. The experimental groups were comprised of 6 animals for treated groups (1-3) and 2 animals in naive group (4). Rotenone was administrated 3.0 mg/kg intraperitoneally (IP) once a day in the morning (days 1-9). SD 33 mg/kg and SDA 33 mg/kg were administrated intraperitoneally once a day in the afternoon (days 1-9).
Animals weight was measured before initiation of treatment (day 0), on days 4,7, 9 during the experiment and on termination day 11. On day 11, animals were sacrificed and brains were harvested for further histopathological analysis.
IP administration: Rotenone was administrated to groups 1-3. Rotenone was injected intraperitoneally at a dose 3.0 mg/kg once a day in the morning (days 1-9). SD and SDA was administrated both at a dose of 33 mg/kg and were injected intraperitoneally once a day in the afternoon (days 1-9). Group number 4 was untreated, and remained as a naive group.

With `CC(=O)NC(CS)C(=O)NC(Cc1cccc(O)c1O)C(N)=O` (stereo not drawn) [SDA-341, Acetyle-Cys-2,3 dihydroxyphenylalanine-amide] the EC50 (JNK phosphorylation; 10 µM AuF, western blot densitometry, read-out: EC50 in reduction of JNK activation) was 100 µM, the “JNK phosphorylation (AuF-triggered)” value (JNK phosphorylation; summary statement) was “inhibit” and the “Weight, group average” value ([1]; average n=6, day 0 (before treatment)) was 304.33 gr. For the same compound, the “Weight, group average” value ([1]; average n=6, day 4) was 294.17 gr, the “Weight, group average” value ([1]; average n=6, day 7) was 284.33 gr and the “Weight, group average” value ([1]; average n=6, day 9) was 275.50 gr. For the same compound, the “Weight, group average” value ([1]; average n=6, day 11) was 271.33 gr, the Weight ([1]; day 0 (before treatment), rotenone 3 mg/kg + compound 33 mg/kg IP) was 292 gr and 307 gr (2×) and 305 gr and 315 gr and 300 gr and the Weight ([1]; day 4, rotenone 3 mg/kg + compound 33 mg/kg IP) was 284 gr and 293 gr and 299 gr (2×) and 294 gr and 296 gr. For the same compound, the Weight ([1]; day 7, rotenone 3 mg/kg + compound 33 mg/kg IP) was 274 gr and 283 gr (2×) and 287 gr and 288 gr and 291 gr, the Weight ([1]; day 9, rotenone 3 mg/kg + compound 33 mg/kg IP) was 275 gr and 272 gr and 267 gr and 274 gr and 281 gr and 284 gr and the Weight ([1]; day 11, rotenone 3 mg/kg + compound 33 mg/kg IP) was 272 gr and 261 gr and 269 gr and 266 gr and 283 gr and 277 gr.
